The test system of assay [1] is CHIP. Briefly: NanoBiT live cell PPI assay (CHIP-tau split luciferase). The class given is cell-based. The note with it: Fig 1B, normalized to FL tau with vehicle, 30nM OA. On the procedure: Fig. 1 Phosphorylation of tauC3 inhibits interaction with CHIP. A Cartoon schematic of the live-cell NanoBiT assay for measuring CHIP-tau PPIs (NanoBiT PDB = 7SNX; CHIP PDB = 2C2L). B Results of NanoBiT assays for CHIP interactions with tau proteoforms following treatment with okadaic acid (30 nM, 18 h) or DMSO control. Luminescence normalized to CHIP binding to FL 0N4R tau treated with vehicle (dashed line). Error bars represent standard deviation (SD). Statistical significance was determined by two-way ANOVA with Bonferroni’s post hoc analysis (n = 3 biological replicates). CTRL = mock transfected control. C Tau proteoforms binding to immobilized CHIP measured by ELISA. Assay was performed in technical triplicate and normalized to maximum absorbance at 450 nm. D Dissociation constants derived from (C). Error bars represent SD. E In vitro ubiquitination of tau proteoforms by CHIP. Samples were collected at the denoted timepoints, quenched in SDS-PAGE loading buffer, and analyzed by western blot. Assay was performed once.
Fig. 2 Phosphorylation of tauC3 Ser416 is sufficient to inhibit interaction with CHIP. A Cartoon depicting constructs used for mapping of inhibitory phosphorylation sites by NanoBiT live cell assays. B NanoBiT live cell assay for CHIP interactions with truncated tau constructs following treatment with okadaic acid (30 nM, 18 h) or DMSO control. Data are shown as the difference between okadaic acid treated samples and vehicle control. Error bars represent SD. Statistical significance was determined by two-sided, one-way ANOVA with Tukey’s post hoc analysis (n = 3 biological replicates). C Apparent change in melting temperatures (Tmapp) for CHIP incubated with DMSO control or Hsp70 C-terminal peptides, as determined by DSF. Error bars represent SD. (n = 4 technical replicates). D DSF experiments performed and analyzed as in the previous panel, but with tauC3-derived peptides. (n = 4 technical replicates). E Competition FP experiment showing displacement of fluorescent tracer from the CHIP TPR domain by various 10-mer Hsp70 or tauC3-derived peptides. Experiments were performed in technical quadruplicate. F Inhibition constants derived from (E). Error bars represent SD. G Tau proteoforms binding to immobilized CHIP, as measured by ELISA. Assay was performed in technical triplicate and normalized to maximum absorbance at 450 nm. H Dissociation constants derived from (G). Error bars represent SD.
CHIP-substrate NanoBiT PPI assay was performed as previously described. Briefly, HEK293T cells were seeded in poly-D-lysine coated 96-well plates (Corning, flat bottom, white opaque) in Opti-MEM. Cells were transfected with 50 ng each SmBiT/LgBiT DNA using Lipofectamine 3000 (Thermo Fisher) in Opti-MEM according to the manufacturer’s instructions. Transfections were performed for 24 h, after which the media was replaced with fresh Opti-MEM containing DMSO or 30 nM okadaic acid. Cells were incubated for an additional […] at 37 °C/5% CO2 in a humidified incubator. Following this incubation, 12.5 uL 1X Nano-Glo live cell luciferase reagent (Promega) diluted in LCS buffer (Promega) was added to each well, and samples were incubated for 10 min at room temperature in the dark to allow luminescence levels to stabilize. […] Un-transfected cells were used to obtain background measurements which were subtracted from observed luminescence values.

For assay [2], the target named is CHIP. Briefly: CHIP-tau binding ELISA (tau proteoforms on immobilized CHIP). The following applies: Fig 1D.

One substance from paper PMC11393453, “Phosphorylation of tau at a single residue inhibits binding to the E3 ubiquitin ligase, CHIP” (Nature Communications, 2024) can be followed below.

Where two headings read alike, the source gives them in different places.

With “tau: full length (FL) 0N4R splice isoform of tau, unmodified; recombinant or expressed in cells”, the “fold change of luminescence” value in assay [1] (replicate 1) amounted to 1.804; in assay [1] (replicate 2), 1.978; in assay [1] (replicate 3) it was 1.758. Also, the Kd in assay [2] (replicate 1) was found to be 5.98 µM; in assay [2] (replicate 2) it was 6.43 µM; in assay [2] (replicate 3), 6.35 µM; in assay [2] (read-out: transformed Kd, replicate 1), 5.98 µM; in assay [2] (read-out: transformed Kd, replicate 2), 6.43 µM; in assay [2] (read-out: transformed Kd, replicate 3), 6.35 µM.
